PubChem BioAssay (NCI)
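Following 48 hours of exposure in 96-well plates, responses at five concentrations were used to interpolate endpoints linearly. At the TGI there is no net growth.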

Legend:
Test in all cases: NCI tumour cell line growth inhibition, 48 h
SW-620 colon = tested on: SW-620 colon
LOX IMVI melanoma = tested on: LOX IMVI melanoma
HCC-2998 colon = tested on: HCC-2998 colon
CCRF-CEM leukemia = tested on: CCRF-CEM leukemia
RXF 393 renal = tested on: RXF 393 renal
RXF-631 renal = tested on: RXF-631 renal
HT29 colon = tested on: HT29 colon
UO-31 renal = tested on: UO-31 renal
A549 NSCLC = tested on: A549 NSCLC
KM20L2 colon = tested on: KM20L2 colon
HL-60(TB) leukemia = tested on: HL-60(TB) leukemia
LXFL 529 NSCLC = tested on: LXFL 529 NSCLC
KM12 colon = tested on: KM12 colon
DMS 114 small cell lung = tested on: DMS 114 small cell lung
DMS 273 small cell lung = tested on: DMS 273 small cell lung
HOP-18 NSCLC = tested on: HOP-18 NSCLC
NCI-H522 lung = tested on: NCI-H522 lung
COLO 205 colon = tested on: COLO 205 colon
OVCAR-8 ovarian = tested on: OVCAR-8 ovarian
SK-MEL-2 melanoma = tested on: SK-MEL-2 melanoma
IGROV1 ovarian = tested on: IGROV1 ovarian
SNB-78 CNS = tested on: SNB-78 CNS
SNB-19 CNS = tested on: SNB-19 CNS
NCI-H460 lung = tested on: NCI-H460 lung
A498 renal = tested on: A498 renal
786-0 renal = tested on: 786-0 renal
OVCAR-5 ovarian = tested on: OVCAR-5 ovarian
SF-539 CNS = tested on: SF-539 CNS
UACC-257 melanoma = tested on: UACC-257 melanoma
DLD-1 colon = tested on: DLD-1 colon
K-562 leukemia = tested on: K-562 leukemia
SF-268 CNS = tested on: SF-268 CNS
HOP-92 NSCLC = tested on: HOP-92 NSCLC
SNB-75 CNS = tested on: SNB-75 CNS
XF 498 CNS = tested on: XF 498 CNS
OVCAR-3 ovarian = tested on: OVCAR-3 ovarian
RPMI-8226 leukemia = tested on: RPMI-8226 leukemia
HCT-116 colon = tested on: HCT-116 colon
SK-OV-3 ovarian = tested on: SK-OV-3 ovarian
SK-MEL-28 melanoma = tested on: SK-MEL-28 melanoma
EKVX NSCLC = tested on: EKVX NSCLC
M19-MEL melanoma = tested on: M19-MEL melanoma
SF-295 CNS = tested on: SF-295 CNS
ACHN renal = tested on: ACHN renal
MALME-3M melanoma = tested on: MALME-3M melanoma
HOP-62 NSCLC = tested on: HOP-62 NSCLC
MOLT-4 leukemia = tested on: MOLT-4 leukemia
TK-10 renal = tested on: TK-10 renal
U251 CNS = tested on: U251 CNS
UACC-62 melanoma = tested on: UACC-62 melanoma
NCI-H226 lung = tested on: NCI-H226 lung
M14 melanoma = tested on: M14 melanoma
SN12C renal = tested on: SN12C renal
HCT-15 colon = tested on: HCT-15 colon
NCI-H23 lung = tested on: NCI-H23 lung
CAKI-1 renal = tested on: CAKI-1 renal
P388 leukemia = tested on: P388 leukemia
P388/ADR leukemia = tested on: P388/ADR leukemia
OVCAR-4 ovarian = tested on: OVCAR-4 ovarian
SN12K1 renal = tested on: SN12K1 renal
SK-MEL-5 melanoma = tested on: SK-MEL-5 melanoma
MCF7 breast = tested on: MCF7 breast
NCI/ADR-RES ovarian = tested on: NCI/ADR-RES ovarian

CC(=O)N[C@@H]1C(O)CN2C(=O)C(=O)O[C@H](C(O)CO)[C@@H]12 (stereo not given in full)
TGI (SW-620 colon): > 100 µM | TGI (LOX IMVI melanoma): > 100 µM | TGI (HCC-2998 colon): > 100 µM | TGI (CCRF-CEM leukemia): > 100 µM | TGI (RXF 393 renal): > 100 µM | TGI (RXF-631 renal): > 100 µM | TGI (HT29 colon): > 100 µM | TGI (UO-31 renal): > 100 µM | TGI (A549 NSCLC): > 100 µM | TGI (KM20L2 colon): > 100 µM | TGI (HL-60(TB) leukemia): > 100 µM | TGI (LXFL 529 NSCLC): > 100 µM | TGI (KM12 colon): > 100 µM | TGI (DMS 114 small cell lung): > 100 µM | TGI (DMS 273 small cell lung): > 100 µM | TGI (HOP-18 NSCLC): > 100 µM | TGI (NCI-H522 lung): > 100 µM | TGI (COLO 205 colon): > 100 µM | TGI (OVCAR-8 ovarian): > 100 µM | TGI (SK-MEL-2 melanoma): > 100 µM | TGI (IGROV1 ovarian): > 100 µM | TGI (SNB-78 CNS): > 100 µM | TGI (SNB-19 CNS): > 100 µM | TGI (NCI-H460 lung): > 100 µM | TGI (A498 renal): > 100 µM | TGI (786-0 renal): > 100 µM | TGI (OVCAR-5 ovarian): > 100 µM | TGI (SF-539 CNS): > 100 µM | TGI (UACC-257 melanoma): > 100 µM | TGI (DLD-1 colon): > 100 µM | TGI (K-562 leukemia): > 100 µM | TGI (SF-268 CNS): > 100 µM | TGI (HOP-92 NSCLC): > 100 µM | TGI (SNB-75 CNS): > 100 µM | TGI (XF 498 CNS): > 100 µM | TGI (OVCAR-3 ovarian): > 100 µM | TGI (RPMI-8226 leukemia): > 100 µM | TGI (HCT-116 colon): > 100 µM | TGI (SK-OV-3 ovarian): > 100 µM | TGI (SK-MEL-28 melanoma): > 100 µM | TGI (EKVX NSCLC): > 100 µM | TGI (M19-MEL melanoma): > 100 µM | TGI (SF-295 CNS): > 100 µM | TGI (ACHN renal): > 100 µM | TGI (MALME-3M melanoma): > 100 µM | TGI (HOP-62 NSCLC): > 100 µM | TGI (MOLT-4 leukemia): > 100 µM | TGI (TK-10 renal): > 100 µM | TGI (U251 CNS): > 100 µM

Nc1nc2c(c(=O)[nH]1)NC(CO)CN2 (stereo not given)
TGI (SW-620 colon): > 100 µM | TGI (LOX IMVI melanoma): 36.7 µM | TGI (CCRF-CEM leukemia): > 100 µM | TGI (RXF 393 renal): > 100 µM | TGI (HT29 colon): > 100 µM | TGI (UO-31 renal): > 100 µM | TGI (A549 NSCLC): > 100 µM | TGI (HL-60(TB) leukemia): > 100 µM | TGI (KM12 colon): > 100 µM | TGI (DMS 114 small cell lung): > 100 µM | TGI (DMS 273 small cell lung): > 100 µM | TGI (HOP-18 NSCLC): > 100 µM | TGI (NCI-H522 lung): > 100 µM | TGI (COLO 205 colon): > 100 µM | TGI (OVCAR-8 ovarian): > 100 µM | TGI (IGROV1 ovarian): > 100 µM | TGI (SNB-19 CNS): > 100 µM | TGI (NCI-H460 lung): > 100 µM | TGI (UACC-62 melanoma): > 100 µM | TGI (786-0 renal): > 100 µM | TGI (SF-539 CNS): > 100 µM | TGI (UACC-257 melanoma): 64.3 µM | TGI (DLD-1 colon): > 100 µM | TGI (NCI-H226 lung): > 100 µM | TGI (K-562 leukemia): > 100 µM | TGI (M14 melanoma): > 100 µM | TGI (SNB-75 CNS): > 100 µM | TGI (XF 498 CNS): > 100 µM | TGI (SN12C renal): > 100 µM | TGI (OVCAR-3 ovarian): > 100 µM | TGI (RPMI-8226 leukemia): > 100 µM | TGI (HCT-15 colon): > 100 µM | TGI (HCT-116 colon): > 100 µM | TGI (SK-OV-3 ovarian): > 100 µM | TGI (SK-MEL-28 melanoma): > 100 µM | TGI (EKVX NSCLC): > 100 µM | TGI (M19-MEL melanoma): > 100 µM | TGI (SF-295 CNS): > 100 µM | TGI (ACHN renal): > 100 µM | TGI (NCI-H23 lung): > 100 µM | TGI (MALME-3M melanoma): > 100 µM | TGI (HOP-62 NSCLC): > 100 µM | TGI (MOLT-4 leukemia): > 100 µM | TGI (TK-10 renal): > 100 µM | TGI (U251 CNS): > 100 µM

OCC1OC(n2cnc3cncnc32)C(O)C1O (stereo not given)
TGI (SW-620 colon): 1.84 µM | TGI (LOX IMVI melanoma): 2.46 µM | TGI (HCC-2998 colon): 2.84 µM | TGI (CCRF-CEM leukemia): > 26.1 µM | TGI (RXF 393 renal): 3.9 µM | TGI (HT29 colon): 2.89 µM | TGI (UO-31 renal): 6.84 µM | TGI (A549 NSCLC): 5.8 µM | TGI (KM20L2 colon): 5.17 µM | TGI (HL-60(TB) leukemia): 1.73 µM | TGI (CAKI-1 renal): 2.68 µM | TGI (KM12 colon): 6 µM | TGI (DMS 114 small cell lung): 2.57 µM | TGI (DMS 273 small cell lung): 2.38 µM | TGI (HOP-18 NSCLC): 8.15 µM | TGI (NCI-H522 lung): 5.42 µM | TGI (COLO 205 colon): 1.7 µM | TGI (OVCAR-8 ovarian): 3.17 µM | TGI (P388 leukemia): 1.59 µM | TGI (SK-MEL-2 melanoma): 3.41 µM | TGI (IGROV1 ovarian): 4.81 µM | TGI (SNB-78 CNS): 39.1 µM | TGI (P388/ADR leukemia): 1.46 µM | TGI (SNB-19 CNS): 4.27 µM | TGI (NCI-H460 lung): 1.49 µM | TGI (A498 renal): 3.69 µM | TGI (UACC-62 melanoma): 2.46 µM | TGI (OVCAR-5 ovarian): 4.02 µM | TGI (OVCAR-4 ovarian): 2.63 µM | TGI (SF-539 CNS): 2.94 µM | TGI (UACC-257 melanoma): 3.75 µM | TGI (DLD-1 colon): 1.82 µM | TGI (NCI-H226 lung): 3.33 µM | TGI (K-562 leukemia): 9.77 µM | TGI (SF-268 CNS): 2.98 µM | TGI (SN12K1 renal): 3.49 µM | TGI (HOP-92 NSCLC): 4.21 µM | TGI (SNB-75 CNS): 2.15 µM | TGI (SN12C renal): 3.97 µM | TGI (OVCAR-3 ovarian): 4.94 µM | TGI (RPMI-8226 leukemia): 7.95 µM | TGI (HCT-15 colon): 2.08 µM | TGI (HCT-116 colon): 1.23 µM | TGI (SK-OV-3 ovarian): 5.16 µM | TGI (SK-MEL-28 melanoma): 5.23 µM | TGI (EKVX NSCLC): 4.18 µM | TGI (SK-MEL-5 melanoma): 3.25 µM | TGI (M19-MEL melanoma): 14.1 µM | TGI (SF-295 CNS): 8.32 µM | TGI (NCI-H23 lung): 3.68 µM | TGI (MCF7 breast): 2.15 µM | TGI (MALME-3M melanoma): 4.73 µM | TGI (HOP-62 NSCLC): 6.84 µM | TGI (MOLT-4 leukemia): 5.29 µM | TGI (NCI/ADR-RES ovarian): 2.25 µM | TGI (U251 CNS): 4.58 µM
